In patent publication US20230141101A1, “PDE4 INHIBITOR COMPOUND AND MEDICAL USE THEREOF” (Suzhou Longbotai Pharmaceuticals Co., Ltd., priority 2020, published 2023):

Assays:
Type in all cases: biochemical
Details in all cases: 20 nM
PDE4B1 = molecular target: T1, PDE4B1 (Homo sapiens, UniProt Q07343); assay: PDE4 inhibitory activity assay (FAM-cAMP enzymatic reaction), PDE4B1
T1 construct: purchased BPS 60041
How it was run: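 Each isoform is incubated with test compound for 15 min at room temperature before FAM-cAMP substrate starts a 30-min reaction.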

PDE4D2 = PDE4D2 (Homo sapiens, UniProt Q08499); assay: PDE4 inhibitory activity assay (FAM-cAMP enzymatic reaction), PDE4D2
Chain of PDE4D2 (Q08499 303-809): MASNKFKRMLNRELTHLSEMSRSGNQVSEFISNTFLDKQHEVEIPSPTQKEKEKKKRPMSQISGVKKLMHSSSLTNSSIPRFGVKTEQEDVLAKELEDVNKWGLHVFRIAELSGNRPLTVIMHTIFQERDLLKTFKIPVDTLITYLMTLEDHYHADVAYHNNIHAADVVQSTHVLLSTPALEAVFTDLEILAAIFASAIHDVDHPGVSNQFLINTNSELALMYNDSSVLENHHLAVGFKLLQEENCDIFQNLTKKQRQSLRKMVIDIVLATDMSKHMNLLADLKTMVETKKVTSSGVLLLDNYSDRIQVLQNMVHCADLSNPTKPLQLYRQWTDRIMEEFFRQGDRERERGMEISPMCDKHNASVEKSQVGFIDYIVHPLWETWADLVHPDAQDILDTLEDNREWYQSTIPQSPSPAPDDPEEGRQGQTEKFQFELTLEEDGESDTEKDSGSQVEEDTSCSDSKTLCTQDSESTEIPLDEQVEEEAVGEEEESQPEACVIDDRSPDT
How it was run: (§1)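 Read-out: fluorescence-based detection of FAM-cAMP turnover on a multilabel counter, with IC50 derived by fitting inhibition rates. The reaction ran 30 min at room temperature after a 15-min enzyme–compound preincubation, followed by stopping and 60 min further incubation.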

PDE4A1A = molecular target: T2, PDE4A1A (Homo sapiens, UniProt P27815); assay: PDE4 inhibitory activity assay (FAM-cAMP enzymatic reaction), PDE4A1A
T2 construct: purchased BPS 60040
T2 sequence (P27815 1-647 isoform P27815-4): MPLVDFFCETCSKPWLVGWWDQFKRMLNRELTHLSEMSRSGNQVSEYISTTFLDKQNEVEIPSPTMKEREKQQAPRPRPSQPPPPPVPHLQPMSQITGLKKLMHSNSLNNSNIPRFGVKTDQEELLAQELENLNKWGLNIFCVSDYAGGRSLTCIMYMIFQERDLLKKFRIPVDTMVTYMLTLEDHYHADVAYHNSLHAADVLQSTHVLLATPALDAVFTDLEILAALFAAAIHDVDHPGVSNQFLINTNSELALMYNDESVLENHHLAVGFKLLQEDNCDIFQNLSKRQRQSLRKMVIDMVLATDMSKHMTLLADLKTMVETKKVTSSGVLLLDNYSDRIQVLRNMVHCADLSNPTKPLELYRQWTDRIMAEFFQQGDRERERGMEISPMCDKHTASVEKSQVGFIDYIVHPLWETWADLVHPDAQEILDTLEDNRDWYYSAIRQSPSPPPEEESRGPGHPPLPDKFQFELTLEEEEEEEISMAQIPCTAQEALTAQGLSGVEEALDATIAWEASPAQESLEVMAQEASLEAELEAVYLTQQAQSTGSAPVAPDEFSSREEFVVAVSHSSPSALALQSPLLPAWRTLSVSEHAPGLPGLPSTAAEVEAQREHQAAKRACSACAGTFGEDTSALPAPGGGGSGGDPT
How it was run: as §1

T1 sequence (Q07343 whole entry): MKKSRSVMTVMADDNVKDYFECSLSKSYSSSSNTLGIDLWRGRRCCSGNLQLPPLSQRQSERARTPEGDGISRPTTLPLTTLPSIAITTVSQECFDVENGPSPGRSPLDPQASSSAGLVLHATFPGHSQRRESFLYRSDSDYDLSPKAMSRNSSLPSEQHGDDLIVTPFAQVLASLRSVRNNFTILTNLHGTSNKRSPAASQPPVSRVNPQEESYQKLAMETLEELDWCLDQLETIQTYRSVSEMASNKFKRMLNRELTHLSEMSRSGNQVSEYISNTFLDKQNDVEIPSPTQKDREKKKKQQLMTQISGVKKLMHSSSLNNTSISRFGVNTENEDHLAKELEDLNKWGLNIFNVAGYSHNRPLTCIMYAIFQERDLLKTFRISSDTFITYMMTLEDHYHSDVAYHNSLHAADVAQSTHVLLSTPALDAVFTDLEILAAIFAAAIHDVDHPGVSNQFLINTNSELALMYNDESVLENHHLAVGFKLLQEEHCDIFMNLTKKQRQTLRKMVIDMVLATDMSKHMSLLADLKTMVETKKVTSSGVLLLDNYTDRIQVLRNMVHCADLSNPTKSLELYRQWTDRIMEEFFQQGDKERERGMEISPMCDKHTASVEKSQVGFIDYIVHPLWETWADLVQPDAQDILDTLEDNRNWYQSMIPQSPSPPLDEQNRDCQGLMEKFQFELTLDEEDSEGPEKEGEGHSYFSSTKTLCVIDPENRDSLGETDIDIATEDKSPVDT

| PDE4 B1 inhibitory effect at 20 nM (PDE4B1) | PDE4 D2 inhibitory effect at 20 nM (PDE4D2) | PDE4 A1 inhibitory effect at 20 nM (PDE4A1A) | Structure (SMILES) |
| --- | --- | --- | --- |
| + | + | + | CCOc1nc([C@@H](CS(C)(=O)=O)n2c(=O)n(C)c3cc(-c4ccc(F)cc4OC)ccc32)ccc1OC [Ex. 189, (S)-5-(4-fluoro-2-methoxyphenyl)-1-(1-(6-ethoxy-5-methoxypyridin-2-yl)-2-(methylsulfonyl)ethyl)-3-methyl-1H-benzo[d]imidazol-2(3H)-one] |
| + | + | + | CCOc1nc([C@@H](CS(C)(=O)=O)n2c(=O)[nH]c3cc(-c4c(F)cccc4OC)ccc32)ccc1OC [Ex. 190, (S)-5-(6-fluoro-2-methoxyphenyl)-1-(1-(6-ethoxy-5-methoxypyridin-2-yl)-2-(methylsulfonyl)ethyl)-1H-benzo[d]imidazol-2(3H)-one] |
| + | + | + | CCOc1nc([C@@H](CS(C)(=O)=O)n2c(=O)n(C)c3cc(-c4c(F)cccc4OC)ccc32)ccc1OC [Ex. 191, (S)-5-(6-fluoro-2-methoxyphenyl)-1-(1-(6-ethoxy-5-methoxypyridin-2-yl)-2-(methylsulfonyl)ethyl)-3-methyl-1H-benzo[d]imidazol-2(3H)-one] |
| + | + | + | CCOc1ccccc1-c1ccc2c(c1)[nH]c(=O)n2[C@H](CS(C)(=O)=O)c1ccc(OC)c(OCC)n1 [Ex. 192, (S)-1-(1-(6-ethoxy-5-methoxypyridin-2-yl)-2-(methylsulfonyl)ethyl)-5-(2-ethoxyphenyl)-1H-benzo[d]imidazol-2(3H)-one] |
| − | − | − | CCOc1ccccc1-c1ccc2c(c1)[nH]c(=O)n2[C@@H](CS(C)(=O)=O)c1ccc(OC)c(OCC)n1 [Ex. 193, (R)-1-(1-(6-ethoxy-5-methoxypyridin-2-yl)-2-(methylsulfonyl)ethyl)-5-(2-ethoxyphenyl)-1H-benzo[d]imidazol-2(3H)-one] |
| + | + | + | CCOc1nc([C@@H](CS(C)(=O)=O)n2c(=O)[nH]c3cc(-c4ccccn4)ccc32)ccc1OC [Ex. 194, (S)-1-(1-(6-ethoxy-5-methoxypyridin-2-yl)-2-(methylsulfonyl)ethyl)-5-(pyridin-2-yl)-1H-benzo[d]imidazol-2(3H)-one] |
| − | − | − | CCOc1nc([C@H](CS(C)(=O)=O)n2c(=O)[nH]c3cc(-c4ccccn4)ccc32)ccc1OC [Ex. 195, (R)-1-(1-(6-ethoxy-5-methoxypyridin-2-yl)-2-(methylsulfonyl)ethyl)-5-(pyridin-2-yl)-1H-benzo[d]imidazol-2(3H)-one] |
| + | + | + | CCOc1nc([C@@H](CS(C)(=O)=O)n2c(=O)n(C)c3cc(-c4ccccn4)ccc32)ccc1OC [Ex. 196, (S)-1-(1-(6-ethoxy-5-methoxypyridin-2-yl)-2-(methylsulfonyl)ethyl)-3-methyl-5-(pyridin-2-yl)-1H-benzo[d]imidazol-2(3H)-one] |
| + | + | + | CCOc1nc([C@@H](CS(C)(=O)=O)n2c(=O)n(CC)c3cc(-c4ccccn4)ccc32)ccc1OC [Ex. 197, (S)-1-(1-(6-ethoxy-5-methoxypyridin-2-yl)-2-(methylsulfonyl)ethyl)-3-ethyl-5-(pyridin-2-yl)-1H-benzo[d]imidazol-2(3H)-one] |
| + | + | + | CCOc1nc([C@@H](CS(C)(=O)=O)n2c(=O)n(CCOC)c3cc(-c4ccccn4)ccc32)ccc1OC [Ex. 198, (S)-1-(1-(6-ethoxy-5-methoxypyridin-2-yl)-2-(methylsulfonyl)ethyl)-3-(2-methoxyethyl)-5-(pyridin-2-yl)-1H-benzo[d]imidazol-2(3H)-one] |
| + | + | + | CCOc1nc([C@@H](CS(C)(=O)=O)n2c(=O)[nH]c3c(-c4ccccc4OC)cccc32)ccc1OC [Ex. 203, (S)-1-(1-(6-ethoxy-5-methoxypyridin-2-yl)-2-(methylsulfonyl)ethyl)-4-(2-methoxyphenyl)-1H-benzo[d]imidazol-2(3H)-one] |
| + | + | + | CCOc1nc([C@@H](CS(C)(=O)=O)n2c(=O)[nH]c3c(-c4ccccc4C)cccc32)ccc1OC [Ex. 204, (S)-1-(1-(6-ethoxy-5-methoxypyridin-2-yl)-2-(methylsulfonyl)ethyl)-4-(o-methylphenyl)-1H-benzo[d]imidazol-2(3H)-one] |

The next lines start with the molecule.

| Structure (SMILES) | PDE4 B1 inhibitory effect at 20 nM (PDE4B1) | PDE4 D2 inhibitory effect at 20 nM (PDE4D2) | PDE4 A1 inhibitory effect at 20 nM (PDE4A1A) |
| --- | --- | --- | --- |
| CCOc1nc([C@@H](CS(C)(=O)=O)n2c(=O)n(C)c3cc(-c4cccc(C)c4F)ccc32)ccc1OC [Ex. 178, (S)-5-(2-fluoro-3-methylphenyl)-1-(1-(6-ethoxy-5-methoxypyridin-2-yl)-2-(methylsulfonyl)ethyl)-3-methyl-1H-benzo[d]imidazol-2(3H)-one] | + | + | + |
| CCOc1nc([C@@H](CS(C)(=O)=O)n2c(=O)[nH]c3cc(-c4ccc(C)cc4F)ccc32)ccc1OC [Ex. 179, (S)-5-(2-fluoro-4-methylphenyl)-1-(1-(6-ethoxy-5-methoxypyridin-2-yl)-2-(methylsulfonyl)ethyl)-1H-benzo[d]imidazol-2(3H)-one] | + | + | + |
| CCOc1nc([C@@H](CS(C)(=O)=O)n2c(=O)n(C)c3cc(-c4ccc(C)cc4F)ccc32)ccc1OC [Ex. 180, (S)-5-(2-fluoro-4-methylphenyl)-1-(1-(6-ethoxy-5-methoxypyridin-2-yl)-2-(methylsulfonyl)ethyl)-3-methyl-1H-benzo[d]imidazol-2(3H)-one] | + | + | + |
| CCOc1nc([C@@H](CS(C)(=O)=O)n2c(=O)[nH]c3cc(-c4cc(OC)ccc4F)ccc32)ccc1OC [Ex. 181, (S)-5-(2-fluoro-5-methoxyphenyl)-1-(1-(6-ethoxy-5-methoxypyridin-2-yl)-2-(methylsulfonyl)ethyl)-1H-benzo[d]imidazol-2(3H)-one] | + | + | + |
| CCOc1nc([C@@H](CS(C)(=O)=O)n2c(=O)n(C)c3cc(-c4cc(OC)ccc4F)ccc32)ccc1OC [Ex. 182, (S)-5-(2-fluoro-5-methoxyphenyl)-1-(1-(6-ethoxy-5-methoxypyridin-2-yl)-2-(methylsulfonyl)ethyl)-3-methyl-1H-benzo[d]imidazol-2(3H)-one] | + | + | + |
| CCOc1nc([C@@H](CS(C)(=O)=O)n2c(=O)[nH]c3cc(-c4cccc(OC)c4F)ccc32)ccc1OC [Ex. 183, (S)-5-(2-fluoro-3-methoxyphenyl)-1-(1-(6-ethoxy-5-methoxypyridin-2-yl)-2-(methylsulfonyl)ethyl)-1H-benzo[d]imidazol-2(3H)-one] | + | + | + |
| CCOc1nc([C@@H](CS(C)(=O)=O)n2c(=O)[nH]c3cc(-c4ccc(OC)cc4F)ccc32)ccc1OC [Ex. 184, (S)-5-(2-fluoro-4-methoxyphenyl)-1-(1-(6-ethoxy-5-methoxypyridin-2-yl)-2-(methylsulfonyl)ethyl)-1H-benzo[d]imidazol-2(3H)-one] | + | + | + |
| CCOc1nc([C@@H](CS(C)(=O)=O)n2c(=O)n(C)c3cc(-c4ccc(OC)cc4F)ccc32)ccc1OC [Ex. 185, (S)-5-(2-fluoro-4-methoxyphenyl)-1-(1-(6-ethoxy-5-methoxypyridin-2-yl)-2-(methylsulfonyl)ethyl)-3-methyl-1H-benzo[d]imidazol-2(3H)-one] | + | + | + |
| CCOc1nc([C@@H](CS(C)(=O)=O)n2c(=O)[nH]c3cc(-c4cc(F)ccc4OC)ccc32)ccc1OC [Ex. 186, (S)-5-(5-fluoro-2-methoxyphenyl)-1-(1-(6-ethoxy-5-methoxypyridin-2-yl)-2-(methylsulfonyl)ethyl)-1H-benzo[d]imidazol-2(3H)-one] | + | + | + |
| CCOc1nc([C@@H](CS(C)(=O)=O)n2c(=O)n(C)c3cc(-c4cc(F)ccc4OC)ccc32)ccc1OC [Ex. 187, (S)-5-(5-fluoro-2-methoxyphenyl)-1-(1-(6-ethoxy-5-methoxypyridin-2-yl)-2-(methylsulfonyl)ethyl)-3-methyl-1H-benzo[d]imidazol-2(3H)-one] | + | + | + |
| CCOc1nc([C@@H](CS(C)(=O)=O)n2c(=O)[nH]c3cc(-c4ccc(F)cc4OC)ccc32)ccc1OC [Ex. 188, (S)-5-(4-fluoro-2-methoxyphenyl)-1-(1-(6-ethoxy-5-methoxypyridin-2-yl)-2-(methylsulfonyl)ethyl)-1H-benzo[d]imidazol-2(3H)-one] | + | + | + |
